Measured values: patent publication US20160264593A1 (priority 2013, published 2016)
Several values for one entry are separate records, joined by “and”; a condition that tells them apart may be missing. Equal entries are not always repeated. Where two headings read alike, the source gives them in different places. Blank lines part the entries; values can stand above or below the molecule they belong to.

Assays:
[1] = test system: breast cancer (2LMP) cells; experiment: WST cell viability assay, 2LMP
From the text: (§2) IC50 values were obtained for cytotoxicity against breast cancer (2LMP), glioblastoma (U-87) and lung cancer (A549) cells (See Table 5 and FIGS. 3-5).

[2] = test system: glioblastoma (U-87) cells; experiment: WST cell viability assay, U-87 MG; type: cell-based; settings: for IC50: read-out: IC50 U-87 MG; for cytotoxicity against glioblastoma cells (statement): WST, U-87
lung cancer (A549) cells = experiment: WST cell viability assay, A549; type: cell-based; settings: for IC50: WST-20131028, read-out: IC50 A549; for cytotoxicity against lung cancer cells (statement): WST
[3] = test system: breast cancer (2LMP) cells
From the text: as §2

[4] = Pharmacokinetic study of 153 (and metabolite endothal) in SD rats, iv and po; plasma, liver, brain; type: in vivo
Experimental: The blood, liver and brain tissue samples were collected at predetermined times from rats. […] Compound were diluted shortly before use in 4% sodium bicarbonate for sterile injection (this is the standard pediatric solution of NaHCO3 with a pH of about 8.5).
Compound 153 was freshly prepared by diluting the drugs shortly before use in 4% sodium bicarbonate for sterile injection (this is the standard pediatric solution of NaHCO3 with a pH of about 8.5). The final concentrations of 153 solutions were 0.25 mg/mL. The 153 solutions were administered via iv or po route at dose volume of 5 ml/kg according to the latest body weight. Compound 157 was freshly prepared by diluting the drugs shortly before use in 4% sodium bicarbonate for sterile injection (this is the standard pediatric solution of NaHCO3 with a pH of about 8.5). The final concentrations of […] solutions were 0.3 mg/mL. The 157 solutions were administered via iv or po route at dose volume of 5 ml/kg according to the latest body weight.
Twelve (12) female SD rats per group were dosed by iv with 153 or 157. The rats were fasted overnight prior to dosing, with free access to water. Foods were withheld for 2 hours post-dose. Blood, liver and brain tissue samples in two animals each group were collected at each time point, within 10% of the scheduled time for each time point. Two extra animals were used for analytic method development.
Blood (>0.3 mL) were collected via aorta abdominalis in anaesthetic animals into tubes containing heparin at 15 min, 1, 2, 6, 10 and 24 hours after iv administration. Liver and brain tissues were collected immediately after animal death. The liver and brain tissues were excised and rinsed with cold saline to avoid blood residual. Upon collection, each sample was placed on ice and the blood samples were subsequently centrifuged (4° C., 11000 rpm, 5 min) to separate plasma. The obtained plasma, liver and brain tissue samples were stored at −70° C. until LC-MS/MS analysis.
Two (2) female SD rats per group were dosed by po with 153 or 157. The rats were fasted overnight prior to dosing, with free access to water. Foods were withheld for 2 hours post-dose. Blood samples (>0.3 mL) were collected via aorta abdominalis in anaesthetic animals into tubes containing heparin at 30 min, 1, 2, 6, 10 and 24 hours after po administration.
To each sample, 20 μL IS-D (for blank samples, 20 μL acetonitrile:water (1:1) was added) and 300 μl acetonitrile was added. The sample mixture was vortexed for approximately 3 min. After centrifugation at 10000 rpm for 5 min at 4° C., 100 μL of the upper layer was transferred to a new tube and added 200 μL 0.4% formic acid in water (pH 6.0). The mixture was vortexed for approximately 3 min before injected onto the LC/MS/MS system for analysis.
On the day of the assay, the frozen liver and brain samples were thawed unassisted at room temperature. An about 200 mg weighed sample of each thawed tissue was placed into a plastic tube with water (0.6 mL) to facilitate homogenization. Tissue processing was conducted using a homogenizer for approximately 1 min, 200 μl homogenate was transferred into a fresh Eppendorf tube. To each tube, 50 μL IS-D was added and mixed. Then 600 μl acetonitrile was added and the sample mixture was vortexed for approximately 3 min. After centrifugation at 10000 rpm for 5 min at 4° C., 400 μL of the upper layer was transferred to a new tube and evaporate the supernatant to dryness at 35° C. Reconstitute the residue with 200 μL of 0.4% formic acid in water (pH6.0), and vortex for 3 min, submit for LC-MS/MS analysis.
Frozen unknown plasma samples were completely thawed at room temperature and vortexed thoroughly. With a pipette, 50 μL of plasma was transferred into a 2.0 mL Eppendorf tube. 50 μL of 0.1N HCl and 800 μL ethyl acetate were added into each sample. The sample mixture was vortexed for approximately 3 min.

PP2A [5] = experiment: PP2A immunoprecipitation phosphatase assay on mouse liver lysate, OA added to the reaction (positive control); type: biochemical, Balb/c mice
Experimental: (§1) Coomassie (Bradford) Protein Assay Kit (Pierce); PP2A Immunoprecipitation Phosphatase Assay Kit (Millipore); Lysate preparation for low endogenous phosphate: 20 mM imidazole-HCl, 2 mM EDTA, 2 mM EGTA, 1 mM PMSF, 1 mM benzamidine, 10 ug/ml each of aprotinin, leupeptin, antipain, soybean trypsin inhibitor; Normal Mouse IgG (Millipore); Okadaic acid (OA) (Tocris); DMSO (Sigma).
1. Mouse brain or liver was homogenized using lysis buffer (25 g/L), centrifuged at 12000 g for 10 minutes at […], and the supernatants were collected. 2. The protein was quantitated, and 240 μg of mouse brain or liver lysate was taken to assay phosphatase activity. 3. Added 4 μg of Anti-PP2A or 4 μg Normal mouse IgG as an IP control. 4. Added 30 μl Protein A agarose slurry. 5. Brought volume to 500 μl with pNPP Ser/Thr Assay Buffer. 6. Incubated for 2 h at 4° C. with constant rocking. 7. Washed beads 3 times with 700 μl TBS, followed by one wash with 500 μl Ser/Thr Assay Buffer. 8. Added 20 μl of Ser/Thr Assay Buffer. (In order to determine the linear range of PP2A amount for enzymatic reaction, different amounts of precipitated PP2A were used for subsequent phosphatase assay.) 9. Added 60 μl of diluted phosphopeptide (final concentration would be 750 μM) 10. Added OA (5 μM & 5 nM) or DMSO to the reaction system. 11. […]
14. […] Measured absorbance at a wavelength between […] in a microliter plate reader.

PP2A [6] = experiment: PP2A immunoprecipitation phosphatase assay on mouse brain lysate, OA added to the reaction (positive control); type: biochemical, Balb/c mice
Experimental: as §1
1. Mouse brain or liver was homogenized using lysis buffer (25 g/L), centrifuged at 12000 g for 10 minutes at […], and the supernatants were collected. 2. The protein was quantitated, and 240 μg of mouse brain or liver lysate was taken to assay phosphatase activity. 3. Added 4 μg of Anti-PP2A or 4 μg Normal mouse IgG as an IP control. 4. Added 30 μl Protein A agarose slurry. 5. Brought volume to 500 μl with pNPP Ser/Thr Assay Buffer. 6. Incubated for 2 h at 4° C. with constant rocking. 7. Washed beads 3 times with 700 μl TBS, followed by one wash with 500 μl Ser/Thr Assay Buffer. 8. Added 20 μl of Ser/Thr Assay Buffer. (In order to determine the linear range of PP2A amount for enzymatic reaction, different amounts of precipitated PP2A were used for subsequent phosphatase assay.) 9. Added 60 μl of diluted phosphopeptide (final concentration would be 750 μM) 10. Added OA (5 μM & 5 nM) or DMSO to the reaction system. 11. Incubated for 10 minutes at 30° C. in a shaking incubator. 12. Centrifuged briefly and transferred 25 μl into each well of the microliter plate to be used.
13. Added 100 μl of Malachite Green Phosphate Detection Solution AB.
14. Let color develop for 10-15 minutes at RT. 15. Measured absorbance at a wavelength between […] in a microliter plate reader.

[7] = iv daily for 5 days, phase I; cited from earlier work
[8] = read-out: IC50 2LMP, WST-20131015 (first value of the cell)
[9] = read-out: IC50 2LMP, WST-20131025 (second value of the cell)
[10] = End. in plasma after 153 1.25 mg/kg IV, Mean
[11] = End. in plasma after 153 1.25 mg/kg IV, rat 1
[12] = End. in plasma after 153 1.25 mg/kg IV, rat 2
[13] = End. in plasma after 153 1.25 mg/kg PO, Mean
[14] = End. in plasma after 153 1.25 mg/kg PO, rat 1
[15] = End. in plasma after 153 1.25 mg/kg PO, rat 2
[16] = Endothal in liver after single iv 153 1.25 mg/kg, Mean
[17] = Endothal in liver after single iv 153 1.25 mg/kg, rat 1
[18] = Endothal in liver after single iv 153 1.25 mg/kg, rat 2
[19] = 5 nM OA in the reaction, brain sample M1-1
[20] = 5 μM OA in the reaction, brain sample M1-1

- IC50 [1, 8]: 9.19 µM
- IC50 [1, 9]: 12.8 µM
- IC50 ([2]; Homo sapiens, U-87 MG, WST-20131017 (first value of the cell)): 15.2 µM
- IC50 ([2]; Homo sapiens, U-87 MG, WST-20131024 (second value of the cell)): 8.28 µM
- IC50 (lung cancer (A549) cells; Homo sapiens, A549): 8.74 µM
Compound: CCCCC/C=C/C/C=C/CCCCCCCCOC(=O)C1C2CCC(O2)C1C(=O)N1CCN(C)CC1 (stereo not shown) [Compound 158, 3-(4-Methylpiperazine-1-carbonyl)-7-oxa-bicyclo [2,2,1] heptane-2-carboxylic acid linoleyl ester]
- cytotoxicity against glioblastoma cells (statement) [2]: cytotoxic
- cytotoxicity against lung cancer cells (statement) (lung cancer (A549) cells; A549): cytotoxic
- cytotoxicity against breast cancer cells (statement) [3]: cytotoxic
- cytotoxicity relative to 100 (statement) [3]: increased cytotoxicity relative to 100

Compound: CCCCCCCCCCCCCCCCCOC(=O)C1C2CCC(O2)C1C(=O)N1CCN(C)CC1 (stereo not shown) [Compound 159]
- cytotoxicity against breast cancer cells (statement) ([1]; WST, 2LMP): cytotoxic
- cytotoxicity relative to 100 (statement) ([1]; cell line not specified (2LMP, U-87, A549 tested)): increased cytotoxicity relative to 100
- IC50 [1, 8]: 4.66 µM
- IC50 [1, 9]: 4.62 µM
- cytotoxicity against glioblastoma cells (statement) [2]: cytotoxic
- IC50 ([2]; WST-20131017 (first value of the cell)): 5.41 µM
- IC50 ([2]; WST-20131024 (second value of the cell)): 5.07 µM
- cytotoxicity against lung cancer cells (statement) (lung cancer (A549) cells; A549): cytotoxic
- IC50 (lung cancer (A549) cells): 4.71 µM

Compound: O=C(O)C1C2CCC(O2)C1C(=O)O (stereo not shown) [End.]
- AUC [4, 10]: 378 ng·h/mL
- AUC0-∞ [4, 10]: 600 ng·h/mL
- Cmax [4, 10]: 70.5 ng/mL
- MRT (0-t) [4, 10]: 3.34 h
- T1/2 [4, 10]: 5.2 h
- Tmax [4, 10]: 1.13 h
- AUC [4, 11]: 482 ng·h/mL
- AUC0-∞ [4, 11]: 618 ng·h/mL
- Cmax [4, 11]: 77.1 ng/mL
- MRT (0-t) [4, 11]: 3.93 h
- T1/2 [4, 11]: 4.37 h
- Tmax [4, 11]: 2 h
- AUC [4, 12]: 274 ng·h/mL
- AUC0-∞ [4, 12]: 581 ng·h/mL
- Cmax [4, 12]: 63.8 ng/mL
- MRT (0-t) [4, 12]: 2.74 h
- T1/2 [4, 12]: 6.02 h
- Tmax [4, 12]: 0.25 h
- AUC [4, 13]: 179 ng·h/mL
- AUC0-∞ [4, 13]: 364 ng·h/mL
- Cmax [4, 13]: 46.9 ng/mL
- MRT (0-t) [4, 13]: 2.76 h
- T1/2 [4, 13]: 5.49 h
- Tmax [4, 13]: 0.75 h
- AUC [4, 14]: 189 ng·h/mL
- AUC0-∞ [4, 14]: 395 ng·h/mL
- Cmax [4, 14]: 53.6 ng/mL
- MRT (0-t) [4, 14]: 2.8 h
- T1/2 [4, 14]: 5.53 h
- Tmax [4, 14]: 1 h
- AUC [4, 15]: 169 ng·h/mL
- AUC0-∞ [4, 15]: 333 ng·h/mL
- Cmax [4, 15]: 40.2 ng/mL
- MRT (0-t) [4, 15]: 2.72 h
- T1/2 [4, 15]: 5.45 h
- Tmax [4, 15]: 0.5 h
- MRT (0-t) [4, 16]: 3.24 h
- T1/2 [4, 16]: 2.79 h
- Tmax [4, 16]: 2 h
- T1/2 [4, 17]: 3 h
- Tmax [4, 17]: 2 h
- MRT (0-t) [4, 18]: 3.43 h
- T1/2 [4, 18]: 2.57 h
- Tmax [4, 18]: 2 h

Compound: C=C1[C@@H](O)[C@@H]2O[C@]3(CC[C@H](/C=C/[C@@H](C)[C@@H]4CC(C)=C[C@@]5(O[C@H](C[C@@](C)(O)C(=O)O)CC[C@H]5O)O4)O3)CC[C@H]2O[C@@H]1[C@@H](O)C[C@H](C)[C@H]1O[C@@]2(CCCCO2)CC[C@H]1C [OA, Okadaic acid]
- activity of PP2A in livers, positive control (statement) (PP2A [5]): significantly inhibited
- Average Conc. (PP2A [6]; [19]): 270.60
- Average Relative Activity (vehicle = 100) (PP2A [6]; [19]): 12.46
- Conc. (phosphate, single reading) (PP2A [6]; [19]): 282.72 and 271.21
- Mean Conc. (PP2A [6]; [19]): 276.96
- Mean Conc. less IgG blank (PP2A [6]; [19]): 270.60
- Relative Conc. (PP2A [6]; [19]): 0.12
- Relative PP2A Activity (vehicle = 100) (PP2A [6]; [19]): 12.46
- Average Conc. (PP2A [6]; [20]): −5.54
- Average Relative Activity (vehicle = 100) (PP2A [6]; [20]): −0.38
- Mean Conc. (PP2A [6]; [20]): 0.82
- Mean Conc. less IgG blank (PP2A [6]; [20]): −5.54
- Relative Conc. (PP2A [6]; [20]): 0.00
- Relative PP2A Activity (vehicle = 100) (PP2A [6]; [20]): −0.38
- activity of PP2A in brains, positive control (statement) (PP2A [6]; OA added to the reaction): significantly inhibited

Compound: C[C@@](O)(/C=C/[C@H]1CC=CC(=O)O1)[C@@H](C[C@@H](O)\C=C/C=C\C=C\CO)OP(=O)(O)O [fostriecin]
- dose limiting toxicity [7]: not achieved
- major toxicities [7]: reversible non-cumulative increases in serum creatinine and hepatic enzymes
